Measured values reported in patent publication US9126999B2, “Tetrahydropyrazolopyrimidine compounds” (EISAI R&D MANAGEMENT CO., LTD., priority 2012, dated 2015).
Entries after “also recorded” stand apart in the source; their conditions may differ.

Assays:
NZBWF1/J mice = test: NZBxNZW strain lupus disease model; format: in vivo, mouse; details: NZB/W model; for anti-dsDNA titers: QD PO; for proteinuria: UACR
Procedure: Figure Legend: Female NZBWF1/J mice were received at 6 weeks of age, baseline bleeds were performed, and mice were monitored for disease progression by following anti-dsDNA titers. At 20 weeks of age, mice were randomized into groups with equivalent median anti-dsDNA titers and treated at 23 weeks of age with Vehicle (Veh; 0.5% methyl-cellulose) alone or 33, 100, or 300 mg/kg ER-892887 once-a-day orally (QD PO). All mice were sacrificed at 45 weeks of age (22 weeks total treatment) and blood plasma anti-dsDNA titers were determined by ELISA. (A) Impact of ER-892887 treatment over time on anti-dsDNA titers. (B) Bar graph of +22 weeks treatment data for ER-892887 derived from data shown in (A). (C) Just prior to termination at 45 weeks of age (following 22 weeks of treatment), urine was collected from individual mice, and the Urinary Albumin Creatinine Ratio (UACR, proteinuria) was determined for each animal as an indirect measure of kidney function. (D) Summary of mortality observed in this study. (E) At the time of sacrifice, kidneys were collected from individual mice, fixed in 10% formalin for 24 hours, embedded in paraffin, and H&E stained sections were generated for histopathology assessment in a blinded fashion. Statistical significance was determined by Mann-Whitney test for (C).
Figure Legend. Female NZBWF1/J mice were received at 8 weeks of age, baseline bleeds were performed, and mice were monitored for disease progression by following anti-dsDNA titers. At 24 weeks of age, mice were randomized into groups with equivalent median anti-dsDNA titers and treated at 25 weeks of age QD PO with Vehicle (Veh; 0.5% methyl-cellulose) alone or 33, 100, or 300 mg/kg ER-892887. Anti-dsDNA titers were determined by ELISA on blood plasma samples at the time points indicated. (A) Impact of compound treatment on median anti-dsDNA titers over time up to +17 weeks of treatment. (B) Impact of compound treatment on median anti-dsDNA at the +13 weeks of treatment time point only from data shown in (A). (C) After 13 weeks (top graph) or 17 weeks (bottom graph) of compound treatment, urine was collected from individual mice, and the Urinary Albumin Creatinine Ratio (UACR, proteinuria) was determined for each animal as an indirect measure of kidney function. Mice indicated within the circle with high UACR were those animals that died between the +13 wks and +17 wks of treatment (statistical significance was determined by Mann-Whitney test). (D) Blood urea nitrogen (BUN) measured in the plasma from select groups after 13 weeks of treatment. (E) Mortality curves for Vehicle versus compound treated mice up to 17 weeks of treatment. […] (F) Summary of mortality observed in this study.
Figure Legend: Female NZBWF1/J mice were received at 6 weeks of age, baseline bleeds were performed, and mice were monitored for disease progression by following anti-dsDNA titers. At 24 weeks of age, mice were randomized into groups with equivalent median anti-dsDNA titers and treated with Vehicle (Veh; 0.5% methyl-cellulose) alone or 300 mg/kg ER-885454 once-a-day orally (QD PO). All mice were sacrificed at 47 weeks of age (23 weeks total treatment) and blood plasma anti-dsDNA titers were determined by ELISA (A). (B) Just prior to termination at 47 weeks of age, urine was collected from individual mice, and Urinary Albumin Creatinine Ratio (UACR, proteinuria) was determined for each animal as an indirect measure of kidney function. (C) At the time of sacrifice, kidneys were collected from individual mice, fixed in 10% formalin for 24 hours, embedded in paraffin, and H&E stained sections were generated for histopathology assessment in a blinded fashion. Statistical significance was determined by Mann-Whitney test for (A) above.
Figure Legend: Female NZBWF1/J mice were received at 4 weeks of age, baseline bleeds were performed at 10 and 26 weeks, and mice were monitored for disease progression by following anti-dsDNA titers and proteinuria. […]

Human TLR7/8 = tested on: T1, Human TLR7/8; test: Human PBMC cell-based assay, RNA-Ig (SL4-Ig) stimulus, cytokine ELISA; details: Hu PBMC; ligand RNA-Ig; analyte IP-10
T1 construct: IC50; other: Hu PBMC; ligand RNA-Ig; analyte IP-10
Method in brief: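 Ficoll-isolated human PBMC treated in triplicate with antagonist (final 0.1% DMSO), then stimulated with RNA-Ig (SL4-Ig) complex preincubated 15-30 min. Incubation 20 h at 37° C., 5% CO2; supernatant cytokines quantified by ELISA.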

SMILES	histological signs of glomerulonephritis (NZBWF1/J mice)	anti-dsDNA titers (NZBWF1/J mice)	proteinuria (NZBWF1/J mice)	delay of development of proteinuria compared with two drugs commonly used in the treatment of human lupus (NZBWF1/J mice)	efficacy in combination with hydroxychloroquine and prednisolone (NZBWF1/J mice)	survival (NZBWF1/J mice; vs. Vehicle, 33-100 mg/kg QD PO, long-term dosing)	IC50 (Human TLR7/8)
COc1ccc([C@@H]2C[C@H](C(F)(F)F)n3nc(-c4ccncc4)cc3N2)cc1OC [ER-885454]	reduced	reduced	reduced	–	–	–	–
COc1ccc([C@@H]2C[C@H](C(F)(F)F)n3nc(-c4ccc(C(=O)N5CCNCC5)cc4)cc3N2)cc1OC [ER-892887, (4-((5S,7R)-5-(3,4-dimethoxyphenyl)-7-(trifluoromethyl)-4,5,6,7-tetrahydropyrazolo[1,5-a]pyrimidin-2-yl)phenyl)(piperazin-1-yl)methanone]	reduced	reduced	reduced proteinuria	more effectively	efficacious	statistically significant survival benefit; also recorded: afforded survival benefit; also recorded: significantly enhanced survival	45 nM
